# Source: patent US20110177541A1, “METHOD FOR ADJUSTING THE COAGULATION TIME IN CALIBRATOR OR CONTROL PLASMAS” (DIAGNOSTICA STAGO, priority 2010, published 2011)
# Test system: plasma coagulation time (PT)
# Experiment: Prothrombin time (PT) in STA NeoCl+ on treated (defrosted, pooled, excipient-supplemented, filtered) plasma
# Type: biochemical
# Procedure: The plasma bags were defrosted at 37° C.±2° C. in a defroster; once defrosted, the plasma was stabilized at 37° C.±2° C. for 30 minutes.
# The bags were then pooled in a stainless steel container and the plasma was then homogenized using a magnetic stirrer.
# The lyophilization excipients (lactose, saccharose, HEPES buffer) were added, stirring until dissolution was complete.
# A sample was taken to measure the pH, the conductivity and to determine the PT on a STA Neo Cl+ apparatus using STA-R (Diagnostica STAGO).
# The plasma was filtered on a CRK1 cartridge (Millipore) and a sample was taken to determine the PT in the NeoCl+ after filtration. […]
# A sample of each point was tested in the STA NeoCl+; a range resulting from the addition of different concentrations of F VIIa was produced for each level as a function of the coagulation times obtained.
# For each point, the concentration of added factor VIIa was determined as a function of the times on a reference graph obtained for fresh plasmas.
# The F VIIa was then added, and homogenized and a sample of each point was taken in order to measure the pH, the conductivity and to determine the PT in the STA NeoCl+ using STA-R to verify that the desired times were indeed obtained, then each product was distributed and lyophilized.
# In the table below, a range for procoagulant factor F VIIa has been produced for a range of concentrations of rivaroxaban.
compound,measurement,setting,value
O=C(NC[C@H]1CN(c2ccc(N3CCOCC3=O)cc2)C(=O)O1)c1ccc(Cl)s1 [rivaroxaban],PT divergence of treated plasma with respect to fresh plasma,"500 ng/mL of rivaroxaban, FIG. 1",13 s
same,Time in NeoCl+,"rivaroxaban 25 ng/mL, FVIIa 0 IU/mL",14.4 s
same,Time in NeoCl+,"rivaroxaban 25 ng/mL, FVIIa 0.1 IU/mL",13.7 s
same,Time in NeoCl+,"rivaroxaban 50 ng/mL, FVIIa 0 IU/mL",15.3 s
same,Time in NeoCl+,"rivaroxaban 50 ng/mL, FVIIa 0.2 IU/mL",14.3 s
same,Time in NeoCl+,"rivaroxaban 50 ng/mL, FVIIa 0.3 IU/mL",14.6 s
same,Time in NeoCl+,"rivaroxaban 50 ng/mL, FVIIa 0.4 IU/mL",14.6 s
same,Time in NeoCl+,"rivaroxaban 200 ng/mL, FVIIa 0 IU/mL",21.2 s
same,Time in NeoCl+,"rivaroxaban 200 ng/mL, FVIIa 0.1 IU/mL",19.8 s
same,Time in NeoCl+,"rivaroxaban 200 ng/mL, FVIIa 0.2 IU/mL",19 s
same,Time in NeoCl+,"rivaroxaban 250 ng/mL, FVIIa 0 IU/mL",23.5 s
same,Time in NeoCl+,"rivaroxaban 250 ng/mL, FVIIa 0.2 IU/mL",21 s
same,Time in NeoCl+,"rivaroxaban 250 ng/mL, FVIIa 0.3 IU/mL",20.3 s
same,Time in NeoCl+,"rivaroxaban 250 ng/mL, FVIIa 0.4 IU/mL",19.9 s
same,Time in NeoCl+,"rivaroxaban 500 ng/mL, FVIIa 0 IU/mL",32 s
same,Time in NeoCl+,"rivaroxaban 500 ng/mL, FVIIa 0.1 IU/mL",29.9 s
same,Time in NeoCl+,"rivaroxaban 500 ng/mL, FVIIa 0.2 IU/mL",28.4 s
same,Time in NeoCl+,"rivaroxaban 500 ng/mL, FVIIa 0.3 IU/mL",27.5 s
same,Time in NeoCl+,"rivaroxaban 500 ng/mL, FVIIa 0.4 IU/mL",26.8 s
same,Time in NeoCl+,"rivaroxaban 800 ng/mL, FVIIa 0 IU/mL",43.5 s
same,Time in NeoCl+,"rivaroxaban 800 ng/mL, FVIIa 0.2 IU/mL",38.3 s
same,Time in NeoCl+,"rivaroxaban 800 ng/mL, FVIIa 0.3 IU/mL",36.6 s
